pIC50: −log10 of the molar value. Active and inactive are the calls of the source. The rule behind the calls is not given here. Some results are limits rather than exact numbers.

The test system of data set [1] is MCF7. Put plainly: Cytostatic activity against human MCF7 cells after 4 days by MTT assay. As to conditions: MCF7, 96 h. It counts as functional, cell-based. For orientation: Formazan colour is commonly taken as a measure of viable cells.
The subject of data set [2] is HT-29. The data set is described as follows: Cytostatic activity against human HT-29 cells after 4 days by MTT assay. It counts as functional, cell-based. The settings on record: HT-29, 96 h.
Data set [3] can be described thus: Drug metabolism in rat lysosomal homogenate assessed as large peptide fragment EHWK(MTX)HDWK(Ac)-OH formation at 0.1 ug/ul after 24 hrs by LC-MS analysis. It counts as ADME, tissue-based, Lysosome. The settings on record: tissue homogenate.
The subject of data set [4] is Serum. The data set is described as follows: Metabolic stability in human serum at 10 uM after 24 hrs by RP-HPLC analysis. It counts as ADME, cell-free.
Data set [5] relates to LNCaP. Put plainly: Cytostatic activity against human LNCAP cells after 4 days by MTT assay. The settings on record: 96 h. It counts as functional, cell-based.
The subject of data set [6] is MONO-MAC-6. The data set is described as follows: Induction of adhesion in human MONO-MAC-6 cells at 10^-9 to 10^-6 M after 24 hrs by electrical impedence method relative to control. It counts as functional.
The subject of data set [7] is MONO-MAC-6. Put plainly: Antiproliferative activity against human MONO-MAC-6 cells assessed as inhibition of cell viability at 10^-8 M after 48 hrs by cell counting method. It counts as functional. As to conditions: MONO-MAC-6, 48 h, values are per cent of control.
Data set [8] has as its system MONO-MAC-6. The data set is described as follows: Antiproliferative activity against human MONO-MAC-6 cells assessed as inhibition of cell viability at 10^-9 M after 48 hrs by cell counting method. It counts as functional. The settings on record: MONO-MAC-6, 48 h, values are per cent of control.
Data set [9] deals with MONO-MAC-6. Put plainly: Antiproliferative activity against human MONO-MAC-6 cells assessed as inhibition of cell viability at 10^-8 M after 24 hrs by cell counting method. It counts as functional. The settings on record: MONO-MAC-6, 24 h, values are per cent of control.
Data set [10] concerns MONO-MAC-6. Put plainly: Antiproliferative activity against human MONO-MAC-6 cells assessed as cell viability at 10^-7 to 10^-6 M after 72 hrs by cell counting method relative to untreated control. It counts as functional.
Data set [11] deals with MONO-MAC-6. Put plainly: Antiproliferative activity against human MONO-MAC-6 cells assessed as inhibition of cell viability at 10^-8 M after 72 hrs by cell counting method. It counts as functional. As to conditions: MONO-MAC-6, 72 h, values are per cent of control.
Data set [12] has as its system MONO-MAC-6. The data set is described as follows: Antiproliferative activity against human MONO-MAC-6 cells assessed as inhibition of cell viability at 10^-6 M after 24 hrs by cell counting method. It counts as functional. As to conditions: MONO-MAC-6, 24 h, values are per cent of control.
Data set [13] relates to MONO-MAC-6. The data set is described as follows: Antiproliferative activity against human MONO-MAC-6 cells assessed as cell viability at 10^-6 M after 72 hrs by cell counting method relative to untreated control. It counts as functional.
Data set [14] relates to MONO-MAC-6. Put plainly: Antiproliferative activity against human MONO-MAC-6 cells assessed as cell viability at 10^-6 M after 24 hrs by cell counting method relative to untreated control. It counts as functional.
The subject of data set [15] is MONO-MAC-6. The data set is described as follows: Antiproliferative activity against human MONO-MAC-6 cells assessed as inhibition of cell viability at 10^-9 M after 24 hrs by cell counting method. It counts as functional. The settings on record: MONO-MAC-6, 24 h, values are per cent of control.
Data set [16] has as its system MONO-MAC-6. Put plainly: Antiproliferative activity against human MONO-MAC-6 cells assessed as inhibition of cell viability at 10^-7 M after 72 hrs by cell counting method. It counts as functional. As to conditions: MONO-MAC-6, 72 h, values are per cent of control.
Data set [17] deals with MONO-MAC-6. The data set is described as follows: Antiproliferative activity against human MONO-MAC-6 cells assessed as cell viability at 10^-7 to 10^-6 M after 48 hrs by cell counting method relative to untreated control. It counts as functional.
The test system of data set [18] is MONO-MAC-6. Put plainly: Antiproliferative activity against human MONO-MAC-6 cells assessed as inhibition of cell viability at 10^-6 M after 72 hrs by cell counting method. It counts as functional. As to conditions: MONO-MAC-6, 72 h, values are per cent of control.
Data set [19] deals with MONO-MAC-6. The data set is described as follows: Antiproliferative activity against human MONO-MAC-6 cells assessed as inhibition of cell viability at 10^-7 M after 24 hrs by cell counting method. It counts as functional. As to conditions: MONO-MAC-6, 24 h, values are per cent of control.
Data set [20] has as its system MONO-MAC-6. The data set is described as follows: Induction of adhesion in human MONO-MAC-6 cells at 10^-11 to 10^-12 M after 24 hrs by electrical impedence method relative to control. It counts as functional, cell-based.
The subject of data set [21] is MONO-MAC-6. Put plainly: Antiproliferative activity against human MONO-MAC-6 cells assessed as inhibition of cell viability at 10^-6 M after 48 hrs by cell counting method. It counts as functional. The settings on record: MONO-MAC-6, 48 h, values are per cent of control.
Data set [22] concerns MONO-MAC-6. The data set is described as follows: Antiproliferative activity against human MONO-MAC-6 cells assessed as inhibition of cell viability at 10^-7 M after 48 hrs by cell counting method. It counts as functional. As to conditions: MONO-MAC-6, 48 h, values are per cent of control.
The subject of data set [23] is MONO-MAC-6. Put plainly: Antiproliferative activity against human MONO-MAC-6 cells assessed as inhibition of cell viability at 10^-9 M after 72 hrs by cell counting method. It counts as functional. As to conditions: MONO-MAC-6, 72 h, values are per cent of control.

With `CC(=O)NCCCC[C@H](NC(=O)[C@H](Cc1c[nH]c2ccccc12)NC(=O)[C@H](CC(=O)O)NC(=O)[C@H](Cc1cnc[nH]1)NC(=O)[C@H](CCCCNC(=O)[C@H](CCC(=O)O)NC(=O)c1ccc(N(C)Cc2cnc3nc(N)nc(N)c3n2)cc1)NC(=O)[C@H](Cc1c[nH]c2ccccc12)NC(=O)[C@H](Cc1cnc[nH]1)NC(=O)[C@@H]1CCC(=O)N1)C(=O)N1CCC[C@H]1C(=O)NCC(N)=O`, the pIC50 in [1], in data set [2] and in data set [5] was below 4.30 throughout. The Drug metabolism result in [3] is on record as “Active”. In [4], the Stability entry is recorded as “Stable”.

`CN(Cc1cnc2nc(N)nc(N)c2n1)c1ccc(C(=O)N[C@@H](CCC(=O)O)C(=O)O)cc1` [METHOTREXATE]: the Activity in [6] is reported as 140%. For the same molecule, the viability, % of control at 0.01 µM in [7] is 94%; in data set [9] it was 102%; in data set [11], 60%. The viability, % of control at 0.001 µM came to 97% in data set [8], 101% in data set [15] and 96% in data set [23]. Moreover, the Ratio in data set [10] worked out at 0.76; in [13], 0.77; in data set [14], 0.95; in data set [17], 0.98. Further, the pIC50 (usually the IC50 on a negative log10 scale, so that one unit is a factor of ten) in data set [2] is 5.85; in data set [5], 6.52. In addition, the viability, % of control at 1 µM was determined as 80% in data set [12], 29% in [18] and 52% in data set [21]. In addition, the viability, % of control at 0.1 µM in data set [16] was 27%; in data set [19], 89%; in data set [22], 52%. The result in data set [20] was Active.
